Assay results: PMC5122408, “High throughput chemical library screening identifies a novel p110-δ inhibitor that potentiates the anti-myeloma effect of bortezomib” (Oncotarget, 2016)
Where two headings read alike, the source gives them in different places.

What was measured:
MAPK = assay: Kinase inhibitory profile; assay type: biochemical; details: Other Clinically-relevant Kinases; 10-point concentration assays
mTOR = mTOR (Homo sapiens, UniProt P42345); assay: Kinase inhibitory profile; assay type: biochemical; details: Class IV PI3Ks; 10-point concentration assays
VPS34 = VPS34 (Homo sapiens, UniProt Q8NEB9); assay: Kinase inhibitory profile; assay type: biochemical; details: Class III PI3Ks; 10-point concentration assays
A549 = assay: NCI-60 panel cell growth screen; assay type: cell-based, human; details: A549 (NSCLC)
PKCγ = assay: Kinase inhibitory profile; assay type: biochemical; details: Class II PI3Ks; 10-point concentration assays
MM.1S myeloma cells = assay: Mouse xenograft model of myeloma; assay type: in vivo, mice; details: subcutaneous myeloma xenograft; intravenous; bortezomib 0.5 mg/kg, DT97 10 mg/kg
Protocol: Five week old nude mice flanks are injected subcutaneously with MM.1S myeloma cells. Tumors formed within two weeks and mice were then treated intravenously with vehicle, bortezomib, DT97 or both bortezomib and DT97.
Subcutaneous tumors were generated after injection of myeloma cells. […] Vehicle or bortezomib was administered on days 1, 4, 8 and 11. Mice were euthanized when tumors reached 2 cm^3, became ulcerated or elicited neurologic or musculoskeletal complications that limited mobility and feeding. Survival and tumor growth were evaluated from the first day of treatment. Shown is the average of replicate measurements. […] Kaplan-Meier survival curves comparison of NOD. SCID mice after subcutaneous injection of parental myeloma cells treated with vehicle, DT97, bortezomib or both.
Mice received intravenous injection of either vehicle (PBS in 10% DMSO); bortezomib (0.5 mg/kg), DT97 (10 mg/kg) or both bortezomib and DT97. Tumor volume (TV) measurements were made using a vernier caliper and calculated using the formula: TV = 0.5 (a × b^2) where a is the long diameter and b the short diameter. Mice were euthanized when tumors reached 2 cm^3, became ulcerated or elicited neurologic or musculoskeletal complications that limited mobility and feeding.
In vivo statistical tests were performed using the 2-tailed Student t test.

ERK1/2 = assay: Immunoblot of ERK1/2 phosphorylation in MM cells; assay type: cell-based; details: DT97 500 nm or 1 uM for 48 h
HO-92 = assay: NCI-60 panel cell growth screen; assay type: cell-based, human; details: HO-92 (NSCLC)
HL-60 (TB) = HL-60 (TB) (Leukemia)
SF-539 = assay: NCI-60 panel cell growth screen; assay type: cell-based, human; details: SF-539 (CNS Cancer)
RPMI8226 cells = assay: XTT viability of RPMI8226 cells after PIK3CD shRNA knockdown; assay type: cell-based; details: XTT assay
Protocol: Values represent the average of triplicate measurements. […] Values represent the average of triplicate measurements. […] Values represent the average of triplicate measurements.
Cells were plated, treated as indicated for 72 h and 2, 3-bis-(2-methoxy-4-nitro-5-sulfophenyl)-2H-tetrazolium-5-carboxanilide) added (Sigma-Aldrich) after activation with N-methyl dibenzopyrazine methyl sulfate (Sigma-Aldrich). Absorbance was measured and the effect on myeloma viability determined as previously described. Assays were performed in triplicate and the mean and standard deviation determined. Relative cell viability (mean ± SD) was calculated compared to readings from untreated cells.
shRNA in pLKO.1-TCR lentiviral cloning vectors were transfected into 293T packaging cells with packaging and envelope vector using lipofectamine 2000 (Thermo-Fisher). Viral supernatants were used to transduce myeloma cells. After 48 h, virus was collected and RPMI8226 cells transduced with vectors expressing scrambled (control) or p110-specific shRNA. Cells were mixed with virus and polybrene (8 μg/mL), centrifuged at 2000 × rpm for 90 min, incubated overnight, media changed and selected in puromycin.

HOP-62 = assay: NCI-60 panel cell growth screen; assay type: cell-based, human; details: HOP-62 (NSCLC)
[1] = read-out: LC50 (the source's name)

Chain of VPS34 (Q8NEB9 whole entry): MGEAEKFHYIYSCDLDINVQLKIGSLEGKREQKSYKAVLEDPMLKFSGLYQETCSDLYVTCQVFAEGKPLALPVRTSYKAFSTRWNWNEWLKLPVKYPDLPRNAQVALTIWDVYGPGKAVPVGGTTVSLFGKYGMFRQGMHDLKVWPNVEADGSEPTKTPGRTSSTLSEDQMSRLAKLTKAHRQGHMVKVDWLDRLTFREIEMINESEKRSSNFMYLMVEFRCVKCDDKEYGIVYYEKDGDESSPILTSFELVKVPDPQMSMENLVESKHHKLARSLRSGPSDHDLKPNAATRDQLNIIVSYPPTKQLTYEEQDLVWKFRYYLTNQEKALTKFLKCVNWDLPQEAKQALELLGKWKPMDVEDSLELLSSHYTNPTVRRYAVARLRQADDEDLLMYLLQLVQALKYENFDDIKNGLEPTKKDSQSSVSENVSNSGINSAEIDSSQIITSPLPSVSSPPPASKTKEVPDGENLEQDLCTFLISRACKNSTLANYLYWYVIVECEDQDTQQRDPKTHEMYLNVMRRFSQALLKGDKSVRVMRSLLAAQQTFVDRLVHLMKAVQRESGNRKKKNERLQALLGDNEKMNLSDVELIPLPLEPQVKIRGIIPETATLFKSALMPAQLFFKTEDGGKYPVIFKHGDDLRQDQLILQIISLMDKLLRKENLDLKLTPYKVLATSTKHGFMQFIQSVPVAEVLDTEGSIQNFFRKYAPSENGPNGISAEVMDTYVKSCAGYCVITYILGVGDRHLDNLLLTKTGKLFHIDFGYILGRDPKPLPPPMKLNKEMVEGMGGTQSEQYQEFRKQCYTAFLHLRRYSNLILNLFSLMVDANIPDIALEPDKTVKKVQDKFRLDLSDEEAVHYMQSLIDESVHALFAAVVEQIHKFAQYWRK

N-[4-hydroxy-3-(8-quinolinylthio)-1-naphthyl]benzenesulfonamide [DT97]
Inhibitory profile (kinase inhibition) (MAPK): +
Inhibitory profile (kinase inhibition) (mTOR): +
Inhibitory profile (kinase inhibition) (VPS34): none
GI50 (A549): 747 nM
TGI (A549): 1.81E-5
Percent Growth (A549; log concentration −4.0): −46%
Percent Growth (A549; log concentration −5.0): 16%
Percent Growth (A549; log concentration −6.0): 41%
Percent Growth (A549; log concentration −7.0): 112%
Percent Growth (A549; log concentration −8.0): 106%
Inhibitory profile (kinase inhibition) (PKCγ): none
overall survival (OS) (MM.1S myeloma cells): 16 days
phosphorylation of ERK1/2 at Thre202/Tyr-204 (ERK1/2): reduced the phosphorylation
GI50 (HO-92): 2610 nM
TGI (HO-92): 7.38E-6
Percent Growth (HO-92; log concentration −4.0): −89%
Percent Growth (HO-92; log concentration −5.0): −15%
Percent Growth (HO-92; log concentration −6.0): 96%
Percent Growth (HO-92; log concentration −7.0): 77%
Percent Growth (HO-92; log concentration −8.0): 84%
CC50 (HO-92; [1]): 29.8 µM
GI50 (HL-60 (TB)): 487 nM
TGI (HL-60 (TB)): 4.69E-6
Percent Growth (HL-60 (TB); log concentration −4.0): −63%
Percent Growth (HL-60 (TB); log concentration −5.0): −15%
Percent Growth (HL-60 (TB); log concentration −6.0): 31%
Percent Growth (HL-60 (TB); log concentration −7.0): 93%
Percent Growth (HL-60 (TB); log concentration −8.0): 99%
CC50 (HL-60 (TB); read-out: LC50): 53.1 µM
GI50 (SF-539): 957 nM
TGI (SF-539): 5.13E-6
Percent Growth (SF-539; log concentration −4.0): −86%
Percent Growth (SF-539; log concentration −5.0): −20%
Percent Growth (SF-539; log concentration −6.0): 49%
Percent Growth (SF-539; log concentration −7.0): 98%
Percent Growth (SF-539; log concentration −8.0): 93%
CC50 (SF-539; [1]): 28.5 µM
viability (RPMI8226 cells): little effect
GI50 (HOP-62): 1010 nM
TGI (HOP-62): 2.54E-5
Percent Growth (HOP-62; log concentration −4.0): −37%
Percent Growth (HOP-62; log concentration −5.0): 26%
Percent Growth (HOP-62; log concentration −6.0): 50%
Percent Growth (HOP-62; log concentration −7.0): 95%
Percent Growth (HOP-62; log concentration −8.0): 93%
